Experimental findings from PubChem BioAssay AID1259407 (Chemical Carcinogenesis Research Information System (CCRIS), 2018) are described below.

Molecules are shown by their SMILES. Calls of active or inactive are those of the source. The rule behind the calls is not given here.

This data set has as its system CCRIS mutagenicity, Ames/micronucleus/aberration tests. In words: CCRIS mutagenicity studies.
[1] abbreviates: Test System: AMES SALMONELLA TYPHIMURIUM, Strain/Indicator: TA98, Metabolic Activation: RAT, LIVER, S-9, PCB, Method: PREINCUBATION
Setting [2] is: Test System: AMES SALMONELLA TYPHIMURIUM, Strain/Indicator: TA98, Metabolic Activation: NONE, Method: PREINCUBATION
The mark [3] stands for this setting: Test System: AMES SALMONELLA TYPHIMURIUM, Strain/Indicator: TA100, Metabolic Activation: NONE, Method: PREINCUBATION

With `Cc1cnc2cc3nc(N)n(C)c3c(C)c2n1`, the mutagenic call is, setting by setting: under setting [1], “active; positive”; (Test System: AMES SALMONELLA TYPHIMURIUM, Strain/Indicator: TA98, Metabolic Activation: S-9) “active; positive”; (Test System: AMES SALMONELLA TYPHIMURIUM, Strain/Indicator: TA98, Metabolic Activation: S-9, Method: PREINCUBATION) “active; positive”; (Test System: AMES SALMONELLA TYPHIMURIUM, Strain/Indicator: YG1024, Metabolic Activation: RAT, LIVER, S-9, PCB, Method: PREINCUBATION) “active; positive”; (Test System: AMES SALMONELLA TYPHIMURIUM, Strain/Indicator: YG1024, Metabolic Activation: S-9) “active; positive”.

As for `c1ccc2cnncc2c1`, the mutagenic call by setting is: (Test System: AMES SALMONELLA TYPHIMURIUM, Strain/Indicator: TA98, Metabolic Activation: HAMSTER, LIVER, S-9, AROCLOR 1254, Method: STANDARD PLATE) “inactive; negative”; under setting [2], “inactive; negative”; (Test System: AMES SALMONELLA TYPHIMURIUM, Strain/Indicator: TA98, Metabolic Activation: NONE, Method: STANDARD PLATE) “inactive; negative”; (Test System: AMES SALMONELLA TYPHIMURIUM, Strain/Indicator: TA98, Metabolic Activation: RAT, LIVER, S-9, AROCLOR 1254, Method: STANDARD PLATE) “inactive; negative”; under setting [1], “inactive; negative”; (Test System: AMES SALMONELLA TYPHIMURIUM, Strain/Indicator: TA100, Metabolic Activation: HAMSTER, LIVER, S-9, AROCLOR 1254, Method: STANDARD PLATE) “inactive; negative”. Moreover, the mutagenic call is, setting by setting: under setting [3], “inactive; negative”; (Test System: AMES SALMONELLA TYPHIMURIUM, Strain/Indicator: TA100, Metabolic Activation: NONE, Method: STANDARD PLATE) “inactive; negative”; (Test System: AMES SALMONELLA TYPHIMURIUM, Strain/Indicator: TA100, Metabolic Activation: RAT, LIVER, S-9, AROCLOR 1254, Method: STANDARD PLATE) “inactive; negative”; (Test System: AMES SALMONELLA TYPHIMURIUM, Strain/Indicator: TA100, Metabolic Activation: RAT, LIVER, S-9, PCB, Method: PREINCUBATION) “inactive; negative”; (Test System: AMES SALMONELLA TYPHIMURIUM, Strain/Indicator: TA1535, Metabolic Activation: HAMSTER, LIVER, S-9, AROCLOR 1254, Method: STANDARD PLATE) “inactive; negative”; (Test System: AMES SALMONELLA TYPHIMURIUM, Strain/Indicator: TA1535, Metabolic Activation: NONE, Method: STANDARD PLATE) “inactive; negative”. Moreover, the mutagenic call by setting is: (Test System: AMES SALMONELLA TYPHIMURIUM, Strain/Indicator: TA1535, Metabolic Activation: RAT, LIVER, S-9, AROCLOR 1254, Method: STANDARD PLATE) “inactive; negative”; (Test System: AMES SALMONELLA TYPHIMURIUM, Strain/Indicator: TA1537, Metabolic Activation: HAMSTER, LIVER, S-9, AROCLOR 1254, Method: STANDARD PLATE) “inactive; negative”; (Test System: AMES SALMONELLA TYPHIMURIUM, Strain/Indicator: TA1537, Metabolic Activation: NONE, Method: STANDARD PLATE) “inactive; negative”; (Test System: AMES SALMONELLA TYPHIMURIUM, Strain/Indicator: TA1537, Metabolic Activation: RAT, LIVER, S-9, AROCLOR 1254, Method: STANDARD PLATE) “inactive; negative”; (Test System: AMES SALMONELLA TYPHIMURIUM, Strain/Indicator: TA1538, Metabolic Activation: HAMSTER, LIVER, S-9, AROCLOR 1254, Method: STANDARD PLATE) “inactive; negative”; (Test System: AMES SALMONELLA TYPHIMURIUM, Strain/Indicator: TA1538, Metabolic Activation: NONE, Method: STANDARD PLATE) “inactive; negative”. In addition, the mutagenic call (Test System: AMES SALMONELLA TYPHIMURIUM, Strain/Indicator: TA1538, Metabolic Activation: RAT, LIVER, S-9, AROCLOR 1254, Method: STANDARD PLATE) is “inactive; negative”; the mutagenic call (Test System: MOUSE LYMPHOMA, Strain/Indicator: L5178Y (TK+/TK-), Metabolic Activation: NONE, Method: SUSPENSION/PLATE) was “active; positive. reevaluation of results: equivocal”; the mutagenic call (Test System: MOUSE LYMPHOMA, Strain/Indicator: L5178Y (TK+/TK-), Metabolic Activation: RAT, LIVER, S-9, AROCLOR 1254, Method: SUSPENSION/PLATE) was “active; positive. reevaluation of results: positive”.

Turning to `NC=O`, the mutagenic call is, setting by setting: (End Point: In vivo micronucleus, Test System: Peripheral blood erythrocytes, Species: Mouse, Strain/Sex: B6C3F1/ Male and Female, Route: Oral) “inactive; negative”; (Test System: AMES SALMONELLA TYPHIMURIUM, Strain/Indicator: TA98, Metabolic Activation: HAMSTER, LIVER, S-9, AROCLOR 1254 (10%), Method: PREINCUBATION) “inactive; negative”; under setting [2], “inactive; negative”; (Test System: AMES SALMONELLA TYPHIMURIUM, Strain/Indicator: TA98, Metabolic Activation: RAT LIVER S-9, PHENOBARBITAL AND BETA-NAPHTHOFLAVONE, Method: PREINCUBATION) “inactive; negative”; (Test System: AMES SALMONELLA TYPHIMURIUM, Strain/Indicator: TA98, Metabolic Activation: RAT, LIVER, S-9, AROCLOR 1254 (10%), Method: PREINCUBATION) “inactive; negative”; (Test System: AMES SALMONELLA TYPHIMURIUM, Strain/Indicator: TA100, Metabolic Activation: HAMSTER, LIVER, S-9, AROCLOR 1254 (10%), Method: PREINCUBATION) “inactive; negative”. The mutagenic call under setting [3] is “inactive; negative”; the mutagenic call (Test System: AMES SALMONELLA TYPHIMURIUM, Strain/Indicator: TA100, Metabolic Activation: RAT LIVER S-9, PHENOBARBITAL AND BETA-NAPHTHOFLAVONE, Method: PREINCUBATION) is “inactive; negative”; the mutagenic call (Test System: AMES SALMONELLA TYPHIMURIUM, Strain/Indicator: TA100, Metabolic Activation: RAT, LIVER, S-9, AROCLOR 1254 (10%), Method: PREINCUBATION) is “inactive; negative”; the mutagenic call (Test System: AMES SALMONELLA TYPHIMURIUM, Strain/Indicator: TA1535, Metabolic Activation: HAMSTER, LIVER, S-9, AROCLOR 1254 (10%), Method: PREINCUBATION) is “inactive; negative”; the mutagenic call (Test System: AMES SALMONELLA TYPHIMURIUM, Strain/Indicator: TA1535, Metabolic Activation: NONE, Method: PREINCUBATION) is “inactive; negative”; the mutagenic call (Test System: AMES SALMONELLA TYPHIMURIUM, Strain/Indicator: TA1535, Metabolic Activation: RAT LIVER S-9, PHENOBARBITAL AND BETA-NAPHTHOFLAVONE, Method: PREINCUBATION) was “inactive; negative”. The mutagenic call reads like this: (Test System: AMES SALMONELLA TYPHIMURIUM, Strain/Indicator: TA1535, Metabolic Activation: RAT, LIVER, S-9, AROCLOR 1254 (10%), Method: PREINCUBATION) “inactive; negative”; (Test System: AMES SALMONELLA TYPHIMURIUM, Strain/Indicator: TA1537, Metabolic Activation: HAMSTER, LIVER, S-9, AROCLOR 1254 (10%), Method: PREINCUBATION) “inactive; negative”; (Test System: AMES SALMONELLA TYPHIMURIUM, Strain/Indicator: TA1537, Metabolic Activation: NONE, Method: PREINCUBATION) “inactive; negative”; (Test System: AMES SALMONELLA TYPHIMURIUM, Strain/Indicator: TA1537, Metabolic Activation: RAT LIVER S-9, PHENOBARBITAL AND BETA-NAPHTHOFLAVONE, Method: PREINCUBATION) “inactive; negative”; (Test System: AMES SALMONELLA TYPHIMURIUM, Strain/Indicator: TA1537, Metabolic Activation: RAT, LIVER, S-9, AROCLOR 1254 (10%), Method: PREINCUBATION) “inactive; negative”; (Test System: Ames Salmonella typhimurium, Strain/Indicator: TA98, Metabolic Activation: None, Method: Preincubation) “inactive; negative”. The mutagenic call is “inactive; negative” (Test System: Ames Salmonella typhimurium, Strain/Indicator: TA98, Metabolic Activation: Rat, Liver, S-9, Aroclor 1254 (10%), Method: Preincubation); “inactive; negative” (Test System: Ames Salmonella typhimurium, Strain/Indicator: TA100, Metabolic Activation: None, Method: Preincubation); “inactive; negative” (Test System: Ames Salmonella typhimurium, Strain/Indicator: TA100, Metabolic Activation: Rat, Liver, S-9, Aroclor 1254 (10%), Method: Preincubation); “inactive; negative” (Test System: E. coli, Strain/Indicator: WP urvA pKM101, Metabolic Activation: None, Method: Preincubation); “inactive; negative” (Test System: E. coli, Strain/Indicator: WP urvA pKM101, Metabolic Activation: Rat, Liver, S-9, Aroclor 1254 (10%), Method: Preincubation); “inactive; negative” (Test System: E.COLI, Strain/Indicator: WP2UVRA/PKM101, Metabolic Activation: NONE, Method: PREINCUBATION). Where the note is “Test System: E.COLI, Strain/Indicator: WP2UVRA/PKM101, Metabolic Activation: RAT LIVER S-9, PHENOBARBITAL AND BETA-NAPHTHOFLAVONE, Method: PREINCUBATION”, the mutagenic call was “inactive; negative”.
